Measured values reported in ChEMBL document CHEMBL1177732, “Triterpene saponins from Clematis chinensis and their potential anti-inflammatory activity” (J Nat Prod, 2010).

Tests used:
[1] = target: Prostaglandin G/H synthase 1 (Homo sapiens, UniProt P23219); assay: Inhibition of COX1 by microplate reader
[2] = target: T1, Prostaglandin G/H synthase 2 (Homo sapiens, UniProt P35354); assay: Inhibition of COX2 by microplate reader
T1 sequence (P35354 whole entry): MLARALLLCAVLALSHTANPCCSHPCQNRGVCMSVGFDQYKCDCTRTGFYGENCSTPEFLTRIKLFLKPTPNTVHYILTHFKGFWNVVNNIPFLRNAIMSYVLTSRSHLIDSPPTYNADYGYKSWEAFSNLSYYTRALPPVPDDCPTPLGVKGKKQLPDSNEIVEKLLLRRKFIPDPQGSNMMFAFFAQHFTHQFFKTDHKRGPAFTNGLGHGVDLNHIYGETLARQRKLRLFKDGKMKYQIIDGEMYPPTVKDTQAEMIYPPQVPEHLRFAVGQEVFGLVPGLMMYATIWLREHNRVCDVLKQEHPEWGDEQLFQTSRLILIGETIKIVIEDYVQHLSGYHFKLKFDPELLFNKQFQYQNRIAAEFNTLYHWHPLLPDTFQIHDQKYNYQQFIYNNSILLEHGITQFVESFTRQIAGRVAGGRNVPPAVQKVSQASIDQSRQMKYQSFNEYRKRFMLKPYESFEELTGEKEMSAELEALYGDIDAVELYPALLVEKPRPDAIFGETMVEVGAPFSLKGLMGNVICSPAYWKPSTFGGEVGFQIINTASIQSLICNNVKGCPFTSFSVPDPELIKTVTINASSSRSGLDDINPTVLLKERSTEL

Prostaglandin G/H synthase 1, sequence (P23219 whole entry): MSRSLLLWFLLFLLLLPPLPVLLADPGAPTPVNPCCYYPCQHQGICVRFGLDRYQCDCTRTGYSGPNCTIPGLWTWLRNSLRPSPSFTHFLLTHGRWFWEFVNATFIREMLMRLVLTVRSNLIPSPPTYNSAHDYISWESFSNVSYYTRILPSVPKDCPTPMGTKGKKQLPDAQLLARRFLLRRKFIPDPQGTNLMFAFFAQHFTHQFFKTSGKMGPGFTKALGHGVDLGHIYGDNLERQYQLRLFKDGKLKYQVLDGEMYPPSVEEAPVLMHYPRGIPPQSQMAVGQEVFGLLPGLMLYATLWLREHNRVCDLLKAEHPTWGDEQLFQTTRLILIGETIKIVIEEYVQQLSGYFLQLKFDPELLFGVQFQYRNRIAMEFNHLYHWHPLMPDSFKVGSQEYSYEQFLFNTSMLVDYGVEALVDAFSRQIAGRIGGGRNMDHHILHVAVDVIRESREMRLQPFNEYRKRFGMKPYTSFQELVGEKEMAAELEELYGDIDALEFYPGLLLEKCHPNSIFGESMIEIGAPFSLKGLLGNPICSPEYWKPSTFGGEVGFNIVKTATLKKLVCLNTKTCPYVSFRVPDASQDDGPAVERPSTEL

SMILES | IC50 [1] [µM] | IC50 [2] [µM]
COc1ccc(/C=C/C(=O)O[C@H]2[C@H](O[C@H]3[C@H](O)[C@@H](O)[C@H](O[C@@H]4CO[C@@H](O[C@@H]5[C@@H](O)[C@H](C)O[C@@H](O[C@H]6[C@H](O[C@H]7CC[C@@]8(C)[C@@H](CC[C@]9(C)[C@@H]8CC=C8[C@@H]%10CC(C)(C)CC[C@]%10(C(=O)O[C@@H]%10O[C@H](CO[C@@H]%11O[C@H](CO)[C@@H](O[C@@H]%12O[C@@H](C)[C@H](O)[C@@H](O)[C@H]%12O)[C@H](O)[C@H]%11O)[C@@H](O)[C@H](O)[C@H]%10O)CC[C@]89C)[C@]7(C)CO)OC[C@@H](O)[C@@H]6O)[C@@H]5O)[C@H](O)[C@@H]4O)O[C@@H]3CO)O[C@H](CO)[C@@H](O)[C@@H]2O[C@@H]2O[C@H](CO[C@@H]3O[C@@H](C)[C@H](O)[C@@H](O)[C@H]3O)[C@@H](O[C@@H]3O[C@H](CO)[C@@H](O)[C@H](O)[C@H]3O)[C@H](O)[C@H]2O)cc1O [CLEMATOCHINENOSIDE C] | 6.3 | 6.1
C[C@@H]1O[C@@H](O[C@H]2[C@H](O)[C@@H](O)[C@H](OC[C@H]3O[C@@H](OC(=O)[C@]45CCC(C)(C)C[C@H]4C4=CC[C@@H]6[C@@]7(C)CC[C@H](O[C@@H]8OC[C@H](O)[C@H](O)[C@H]8O)C(C)(C)[C@@H]7CC[C@@]6(C)[C@]4(C)CC5)[C@H](O)[C@@H](O)[C@@H]3O)O[C@@H]2CO)[C@H](O)[C@H](O)[C@H]1O [CIWUJIANOSIDE C3] | > 50 | > 50
COc1ccc(/C=C/C(=O)O[C@H]2[C@H](O[C@H]3[C@H](O)[C@@H](O)[C@H](O[C@@H]4CO[C@@H](O[C@@H]5[C@@H](O)[C@H](C)O[C@@H](O[C@H]6[C@H](O[C@H]7CC[C@@]8(C)[C@@H](CC[C@]9(C)[C@@H]8CC=C8[C@@H]%10CC(C)(C)CC[C@]%10(C(=O)O[C@@H]%10O[C@H](CO[C@@H]%11O[C@H](CO)[C@@H](O[C@@H]%12O[C@@H](C)[C@H](O)[C@@H](O)[C@H]%12O)[C@H](O)[C@H]%11O)[C@@H](O)[C@H](O)[C@H]%10O)CC[C@]89C)[C@]7(C)CO)OC[C@@H](O)[C@@H]6O)[C@@H]5O)[C@H](O)[C@@H]4O)O[C@@H]3CO)O[C@H](CO)[C@@H](O)[C@@H]2O[C@@H]2O[C@H](CO)[C@@H](O)[C@H](O)[C@H]2O)cc1O [CLEMATOCHINENOSIDE G] | 7.5 | 8.9
COc1ccc(/C=C/C(=O)OC[C@H]2O[C@@H](O[C@H]3[C@H](O)[C@@H](O)[C@H](O[C@@H]4CO[C@@H](O[C@@H]5[C@@H](O)[C@H](C)O[C@@H](O[C@H]6[C@H](O[C@H]7CC[C@@]8(C)[C@@H](CC[C@]9(C)[C@@H]8CC=C8[C@@H]%10CC(C)(C)CC[C@]%10(C(=O)O[C@@H]%10O[C@H](CO[C@@H]%11O[C@H](CO)[C@@H](O[C@@H]%12O[C@@H](C)[C@H](O)[C@@H](O)[C@H]%12O)[C@H](O)[C@H]%11O)[C@@H](O)[C@H](O)[C@H]%10O)CC[C@]89C)[C@]7(C)CO)OC[C@@H](O)[C@@H]6O)[C@@H]5O)[C@H](O)[C@@H]4O)O[C@@H]3CO)[C@H](O)[C@@H](O)[C@@H]2O)cc1O [CLEMATOCHINENOSIDE E] | 8.9 | 7.9
COc1ccc(/C=C/C(=O)O[C@@H]2[C@@H](O)[C@H](O[C@H]3[C@H](O)[C@@H](O)[C@H](O[C@@H]4CO[C@@H](O[C@@H]5[C@@H](O)[C@H](C)O[C@@H](O[C@H]6[C@H](O[C@H]7CC[C@@]8(C)[C@@H](CC[C@]9(C)[C@@H]8CC=C8[C@@H]%10CC(C)(C)CC[C@]%10(C(=O)O[C@@H]%10O[C@H](CO[C@@H]%11O[C@H](CO)[C@@H](O[C@@H]%12O[C@@H](C)[C@H](O)[C@@H](O)[C@H]%12O)[C@H](O)[C@H]%11O)[C@@H](O)[C@H](O)[C@H]%10O)CC[C@]89C)[C@]7(C)CO)OC[C@@H](O)[C@@H]6O)[C@@H]5O)[C@H](O)[C@@H]4O)O[C@@H]3CO)O[C@H](CO)[C@H]2O)cc1O [CLEMATOCHINENOSIDE D] | 8.8 | 7.8
COc1ccc(/C=C/C(=O)O[C@H]2[C@H](O[C@H]3[C@H](O)[C@@H](O)[C@H](O[C@@H]4CO[C@@H](O[C@@H]5[C@@H](O)[C@H](C)O[C@@H](O[C@H]6[C@H](O[C@H]7CC[C@]8(C)[C@H]9CC=C%10[C@@H]%11CC(C)(C)CC[C@]%11(C(=O)O[C@@H]%11O[C@H](CO[C@@H]%12O[C@H](CO)[C@@H](O[C@@H]%13O[C@@H](C)[C@H](O)[C@@H](O)[C@H]%13O)[C@H](O)[C@H]%12O)[C@@H](O)[C@H](O)[C@H]%11O)CC[C@@]%10(C)[C@]9(C)CC[C@H]8C7(C)C)OC[C@H](O)[C@@H]6O)[C@@H]5O)[C@H](O)[C@@H]4O)O[C@@H]3CO)O[C@H](CO)[C@@H](O)[C@@H]2O[C@@H]2O[C@H](CO[C@@H]3O[C@@H](C)[C@H](O)[C@@H](O)[C@H]3O[C@@H]3O[C@H](CO)[C@@H](O)[C@H](O)[C@H]3O)[C@@H](O)[C@H](O)[C@H]2O)cc1O [CLEMATERNOSIDE K] | 5.9 | 6.7
C[C@@H]1O[C@@H](O[C@H]2[C@H](O[C@H]3CC[C@]4(C)[C@H]5CC=C6[C@@H]7CC(C)(C)CC[C@]7(C(=O)O[C@@H]7O[C@H](CO[C@@H]8O[C@H](CO)[C@@H](O[C@@H]9O[C@@H](C)[C@H](O)[C@@H](O)[C@H]9O)[C@H](O)[C@H]8O)[C@@H](O)[C@H](O)[C@H]7O)CC[C@@]6(C)[C@]5(C)CC[C@H]4C3(C)C)OC[C@H](O)[C@@H]2O)[C@H](O)[C@H](O)[C@H]1O [HEDERASAPONIN B] | > 50 | > 50
